Measured values published in US20260294870A1, “INDOLE LACTATE FOR THE TREATMENT OF MULTIPLE SCLEROSIS” (The Johns Hopkins University, priority 2023, published 2026).
“Also recorded” adds a separate entry of the source. One block for each compound: values may come before it.

Legend:
[1] = tested on: murine oligodendrocyte precursor cells; assay: Differentiation of murine oligodendrocyte precursor cells (immunocytochemistry, qPCR); type: cell-based, murine (neonatal mice); conditions: for OPC differentiation after PDGF-a withdrawal: PDGF-a withdrawal plus ILA or T3; for OPC differentiation (CC1 expression): compared to control conditions or OPCs treated with PDGF-a
Text: We tested the effect of several doses of indole lactate on differentiation of oligodendrocyte precursor cells isolated using immune-panning from neonatal mice.

[2] = tested on: human embryonic stem cell derived oligodendrocyte precursor cells; assay: Differentiation of human embryonic stem cell derived oligodendrocyte precursor cells (luciferase under MBP promoter); type: cell-based
Text: We also tested the effect of indole lactate on differentiation of human embryonic stem cell derived oligodendrocyte precursor cells. In this system, the cells produce luciferase under control of the promoter for MBP. Thus, OPC differentiation can be measured using the quantity of luciferase produced by cells.

[3] = tested on: experimental autoimmune encephalomyelitis; assay: Experimental autoimmune encephalomyelitis, indole lactate IP; type: in vivo, Mice (C57/BL6); conditions: for Disease severity (EAE): p<0.0001
Text: (§1) Mice (C57/BL6, 8-9 week old) were immunized with MOG35-55 peptide and CFA and received IP injection of PTX on day 0 and 2. […] Mice were weighed and scored daily using the following scale (0-normal, 1-limp tail, 2-hind-limb weakness, 3-hind-limb paralysis, 4-fore-limb weakness, 5-death).

macrophages = assay: Nitric oxide production in macrophages; type: cell-based
OPCs from Ahr KO mice = assay: OPC differentiation in OPCs from constitutive Ahr-KO mice; type: cell-based; conditions: listed as ILA
Text: We further evaluated the mechanism of ILA using OPCs from mice that lack the Ahr gene—constitutive Ahr-KO mice.

[4] = tested on: experimental autoimmune encephalomyelitis; assay: Experimental autoimmune encephalomyelitis, oral indole lactate; type: in vivo, Mice (C57/BL6); conditions: for severity of EAE: oral, ILA 2 mM in drinking water from day 7 post-immunization, 3 weeks, p<0.0001 vs vehicle
Description: as §1
We subsequently performed additional experiments in which we induced EAE using the same paradigm, however at day 7 post-immunization mice were randomized to receive ILA orally in drinking water (ILA 2 mM) or acidified water (adjusted to a similar pH) for the next 3 weeks. At four weeks post-immunization mice were euthanized and tissues were collected and processed for immunohistochemistry. We stained sections of the spinal cord to assess for extent of demyelination and for infiltration of immune cells.
Additionally, we repeated experiments and euthanized mice at the peak of disease to obtain spinal cord tissues for flow cytometric analyses.

[5] = tested on: Arylhydrocarbon Receptor (AhR); assay: CYP1B1 (AhR responsive gene) expression in human ES derived OPCs, quantitative PCR; type: cell-based
Text: We noted presence of AhR in Olig2+ and PDGFRα+ cells confirming that AhR is present in oligodendrocyte precursor cells. We also obtained RNA from human ES derived OPCs that had been treated with either vehicle or two different doses of ILA for 5 days.

[6] = Circulating ILA and IAA levels with oral ILA supplementation; type: in vivo, mice
Text: FIG. 12A, FIG. 12B, FIG. 12C, FIG. 12D, FIG. 12E, FIG. 12F, FIG. 12G, FIG. 12H, and FIG. 12I show: FIG. 12A. Schematic of product of ILA and IAA and the change in levels with ILA supplementation in naïve mice. FIG. 12B. Clinical scores and plasma ILA and IAA levels at end of experiment in mice on vehicle or oral ILA supplementation. FIG. 12C. Change in ILA/IAA ratio. FIG. 12D. Correlation of ILA/IAA ratio and cumulative EAE score. FIG. 12E. Gut microbiota composition in vehicle and ILA groups at various time points (n=10 each group). FIG. 12F. Change in alpha diversity over the course of EAE.

human ES derived OPCs = assay: OPC differentiation of human ES derived OPCs with AhR antagonist; type: cell-based; conditions: small molecule AhR antagonist
Text: We also tested the effects of blocking AhR signaling using a small molecules AhR antagonist.

[7] = tested on: Murine MOG specific T cells; assay: T cell proliferation, activation and Th17 polarization by flow cytometry; type: cell-based, murine (2D2 TCR transgenic C57/BL6 mice)
Description: Murine MOG specific T cells were isolated and stimulated with […] Th17 polarizing conditions for 72 hours followed by flow-cytometry to analyze viability, proliferation and Th17 polarization in presence of vehicle or varying doses of ILA;
T cells were isolated from spleen and lymph nodes of 2D2 TCR transgenic C57/BL6 mice using negative selection (STEMCELL CD4 T cell isolation kit). T cells were then cultured in c-RPMI with MOG35-55 peptide in the presence of irradiated antigen presenting cells with or without additional cytokines to polarize the cells to a Th17 phenotype for 72 hours and then underwent flow-cytometry to analyze proliferation and Th17 polarization.

gut microbiota = assay: Gut microbiota in EAE mice by 16s rRNA sequencing; type: in vivo
Text: We examined the change in the gut microbiota using 16s rRNA sequencing at baseline, peak of disease and chronic disease in mice receiving ILA or vehicle orally.

[8] = tested on: OPCs from wild type (WT) mice; assay: OPC differentiation in OPCs from WT mice; type: cell-based
[9] = tested on: mouse model of demyelination (cuprizone); assay: Cuprizone model of demyelination, oral ILA in drinking water; type: in vivo, mice
Description: In subsequent experiments, we fed mice with 0.2% cuprizone for 5 weeks and then randomized them to ILA 2 mM in drinking water or acidified water as a control for 2 weeks. […] These observations provide evidence that oral administration of ILA promotes remyelination in vivo in a mouse model of demyelination.

[10] = tested on: Cuprizone-induced model of demyelination; assay: Cuprizone-induced model of demyelination, ILA 20 or 40 mg/kg; type: in vivo, Mice; conditions: 0.2% Cuprizone 4 weeks then regular chow one week
Description: We tested the ability of indole lactate to promote remyelination in the Cuprizone-induced model of demyelination. Mice were fed with 0.2% Cuprizone for 4 weeks to induce demyelination and then switched to regular chow for one week. At three weeks of Cuprizone feeding mice were randomized to treatment with ILA 20 mg/kg, ILA 40 mg/kg or vehicle for two weeks.

[11] = spinal cord, four weeks post-immunization, oral ILA 2 mM in drinking water
[12] = spinal cord, peak of disease, oral ILA
[13] = ILA 2 mM in drinking water, 2 weeks, vs vehicle

Structure (SMILES): N[C@@H](Cc1cc(I)c(Oc2ccc(O)c(I)c2)c(I)c1)C(=O)O [T3, reference compound]
- OPC differentiation after PDGF-a withdrawal [1]: further potentiated

- CYP1B1 expression ([5]; high-dose ILA): CYP1B1 expression increased
- expression of CYP1B1 (AhR responsive gene) ([5]; two doses of ILA, 5 days, vs vehicle, dose-response relationship): increased expression of CYP1B1
- ILA/IAA ratio ([6]; EAE mice): increase in ILA/IAA ratio
- circulating ILA levels ([6]; naïve mice): increased circulating ILA levels
Structure (SMILES): O=C(O)C(O)Cc1c[nH]c2ccccc12 (stereo not drawn) [indole lactate, indole-3-lactic acid]
- oligodendrocyte precursor cell differentiation based on production of luciferase (marker of MBP expression) ([2]; 100 μM): promoted oligodendrocyte precursor cell differentiation
- oligodendrocyte precursor cell differentiation based on production of luciferase (marker of MBP expression) ([2]; 300 μM): promoted oligodendrocyte precursor cell differentiation
- OPC differentiation measured by Luciferase release ([2]; ILA treatment conditions, dose-dependent): significant increase in OPC differentiation
- disease severity, dose dependence (EAE) ([3]; 10 and 20 mg/kg IP twice daily vs vehicle): significant dose-dependent reduction in disease severity
- Disease severity (EAE) ([3]; high-dose (20 mg/kg) IP twice daily vs vehicle): reduced significantly
- Disease severity (EAE) ([3]; low-dose (10 mg/kg) IP twice daily vs vehicle): reduced significantly
- production of nitric oxide in macrophages (macrophages): reduced pro-inflammatory cytokine production from T cells in culture and the production of nitric oxide in macrophages
- OPC differentiation (pro-differentiation effect of ILA) (OPCs from Ahr KO mice): loss of pro-differentiation effect; also recorded: the effect was lost
- immune cell infiltration on IHC and flow cytometry analysis ([4]; oral indole lactate vs vehicle): reduction in immune cell infiltration
- severity of EAE [4]: reduced significantly
- severity of EAE ([4]; listed as ILA): reduced severity of EAE
- extent of demyelination on IHC [4, 11]: reduced extent of demyelination
- immune cell infiltration on IHC [4, 11]: reduced extent of demyelination and immune cell infiltration
- iNOS producing inflammatory macrophages (flow cytometry) [4, 12]: shift towards less iNOS producing inflammatory macrophages
- infiltration of T cells and macrophages (flow cytometry) [4, 12]: reduced infiltration of T cells and macrophages
- effect of AhR antagonist on pro-differentiating effect of ILA (human ES derived OPCs; high doses of ILA): this effect was lost at high doses
- pro-differentiating effect of ILA in presence of AhR antagonist (human ES derived OPCs; low doses of ILA, listed as ILA): an AhR inhibitor reverses the effects of ILA on OPC differentiation; also recorded: the AhR antagonist blocked the pro-differentiating effects
- T cell activation ([7]; 72 hours): reduces T cell proliferation, activation
- Th17 polarization ([7]; MOG35-55 peptide, Th17 polarizing cytokines, 72 hours, dose-dependent): reduced T cell proliferation and Th17 polarization in a dose-dependent manner
- T cell proliferation ([7]; MOG35-55 peptide, irradiated antigen presenting cells, 72 hours, dose-dependent): reduces T cell proliferation; also recorded: reduced T cell proliferation and Th17 polarization in a dose-dependent manner
- pro-inflammatory cytokine production from T cells ([7]; in culture): reduces T cell proliferation, activation and pro-inflammatory cytokine production; also recorded: reduced pro-inflammatory cytokine production
- proportion of Olig2 and CC1 double-positive cells ([1]; ILA 150 μM vs vehicle): significantly higher proportion
- proportion of Olig2 and CC1 double-positive cells ([1]; ILA 300 μM vs vehicle): significantly higher proportion
- expression of MBP (qPCR) ([1]; ILA 300 μM with low dose T3 compared to T3 alone): significantly higher expression
- OPC differentiation after PDGF-a withdrawal [1]: further potentiated
- OPC differentiation (CC1 expression) [1]: dose-dependent increase in OPC differentiation
- OPC differentiation (CC1 expression) ([1]; listed as ILA): increased differentiation of OPCs
- acetylene degradation pathway (gut microbiota functional pathway) (gut microbiota; ILA supplementation): reduced acetylene degradation pathway
- change in multiple bacteria (abundance) (gut microbiota; oral ILA vs vehicle): differential change in multiple bacteria
- overall composition of the gut microbiota (gut microbiota; oral ILA vs vehicle, baseline, peak and chronic disease): change in the overall composition of the gut microbiota
- OPC differentiation [8]: promoted OPC differentiation
- remyelination in the corpus callosum (black gold and fluoromyelin staining) ([9]; ILA 2 mM in drinking water, 2 weeks after 0.2% cuprizone 5 weeks, vs acidified water): significantly increased remyelination
- g ratio (scanning EM, corpus callosum) [9, 13]: significantly lower g ratio
- proportion of myelinated axons (scanning EM, corpus callosum) [9, 13]: higher proportion of myelinated axons
- proportion of remyelinated axons (electron micrographs, corpus callosum) ([9]; oral ILA vs vehicle): higher proportion of remyelinated axons
- area of myelination in the corpus callosum (Black Gold staining) ([10]; ILA 20 mg/kg for two weeks): significant increase in area of myelination
- area of myelination in the corpus callosum (Black Gold staining) ([10]; ILA 40 mg/kg for two weeks): significant increase in area of myelination
